The structures appear in SMILES notation. pEC50: −log10 of the molar value.

We go through eight molecules from patent US7138527B2, “Indole derivatives useful for the treatment of diseases” (Pfizer Inc., priority 2002, dated 2006).

For the test, the target named is T1, human β2 adrenergic receptor (Homo sapiens, UniProt P07550).
T1 construct: expressed in transfected cells; host or cells: CHO (Chinese Hamster Ovary) cells, CHOhβ2
Kind of test: Cell based cAMP assay in CHO cells recombinantly expressing the human β2 adrenergic receptor (cAMP-Flashplate). Particulars: CHOhβ2 cells, 1 hour incubation. As for the experimental part:
According to another alternative, the agonist potency for the […] of the indole derivatives of the formula (1) may also be determined by the measure of the concentration of compound according to the present invention required to produce half maximal effect (EC50) for the β2 receptor.
10 mM/100% DMSO (dimethylsulfoxide) stock of compound is diluted to required top dose in 4% DMSO. This top dose is used to construct a 10-point semi-log dilution curve, all in 4% DMSO. […] Data was expressed as % Isoprenaline response.
Cells were seeded to give about 90% confluency for testing.
25 μl/well each dose of compound was transferred into a cAMP-Flashplate® (NEN, SMP004B), with 1% DMSO as basal controls and 100 nM Isoprenaline as max controls. This was diluted 1:2 by the addition of 25 μl/well PBS. […] Compounds were incubated with 50 μl/well cells for 1 hour. […] Dose-response data was expressed as % Isoprenaline activity and fitted using a four parameter sigmoid fit.

T1 sequence (P07550 whole entry): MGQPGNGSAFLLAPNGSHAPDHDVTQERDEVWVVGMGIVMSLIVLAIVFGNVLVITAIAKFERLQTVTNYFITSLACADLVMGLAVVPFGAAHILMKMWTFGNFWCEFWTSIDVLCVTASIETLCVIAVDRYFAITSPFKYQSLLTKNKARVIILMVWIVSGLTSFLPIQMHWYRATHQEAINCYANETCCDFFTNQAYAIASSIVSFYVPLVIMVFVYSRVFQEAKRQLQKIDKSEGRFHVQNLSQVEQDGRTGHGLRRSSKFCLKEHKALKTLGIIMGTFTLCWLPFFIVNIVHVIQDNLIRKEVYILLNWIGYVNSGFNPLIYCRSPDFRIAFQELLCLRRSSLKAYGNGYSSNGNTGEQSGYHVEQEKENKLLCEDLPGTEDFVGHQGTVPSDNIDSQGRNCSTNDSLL

By pEC50 is commonly meant the EC50 on a negative log10 scale, so that one unit is a factor of ten. Consider `CCn1c(C(=O)NCc2ccc(Cl)cc2)cc2cc(C[C@@H](C)NC[C@H](O)c3ccc(O)c(CO)c3)ccc21` [Example 29, 1-Ethyl-5-[(2R)-2-({(2R)-2-hydroxy-2-(4-hydroxy-3-hydroxymethylphenyl)ethyl}amino)propyl}-N-(4-chlorobenzyl)-1H-indole-2-carboxamide], for which the pEC50 is 8.40.

For `COc1cc(O)cc(OC)c1CNC(=O)c1cc2cc(C[C@@H](C)NC[C@H](O)c3ccc(O)c(CO)c3)ccc2[nH]1` [Example 9, 5-[(2R)-2-({(2R)-2-Hydroxy-2-(4-hydroxy-3-hydroxymethylphenyl)ethyl]amino)propyl]-N-(4-hydroxy-2,6-dimethoxybenzyl)-1H-indole-2-carboxamide], the pEC50 is 10.70.

`CC[C@H](Cc1ccc2[nH]c(C(=O)NCc3ccccc3)cc2c1)NC[C@H](O)c1ccc(O)c(CO)c1` [Example 36, 5-[(2R)-2-({(2R)-2-Hydroxy-2-(4-hydroxy-3-hydroxymethylphenyl)ethyl]amino)butyl}-N-benzyl-1H-indole-2-carboxamide]: the pEC50 is 9.42.

In the case of `C[C@H](Cc1ccc2[nH]c(C(=O)N(C)Cc3ccccc3)cc2c1)NC[C@H](O)c1ccc(O)c(CO)c1` [Example 22, 5-[(2R)-2-({(2R)-2-Hydroxy-2-(4-hydroxy-3-hydroxymethylphenyl)ethyl}amino)propyl}-N-benzyl-N-methyl-1H-indole-2-carboxamide], the pEC50 was 10.70.

In the case of `COc1ccccc1CNC(=O)c1cc2cc(C[C@@H](C)NC[C@H](O)c3ccc(O)c(CO)c3)ccc2[nH]1` [Example 1, 5-[(2R)-2-({(2R)-2-hydroxy-2-[4-hydroxy-3-(hydroxymethyl)phenyl]ethyl}amino)propyl]-N-(2-methoxybenzyl)-1H-indole-2-carboxamide], the pEC50 is 10.70.

With `COc1cccc(CNC(=O)c2cc3cc(C[C@@H](C)NC[C@H](O)c4ccc(O)c(CO)c4)ccc3[nH]2)c1` [Example 4, 5-[(2R)-2-({(2R)-2-hydroxy-2-[4-hydroxy-3-(hydroxymethyl)phenyl]ethyl}amino)propyl]-N-(3-methoxybenzyl)-1H-indole-2-carboxamide], the pEC50 was 9.92.

In the case of `COc1cccc(OC)c1CNC(=O)c1cc2cc(C[C@@H](C)NC[C@H](O)c3ccc(O)c(CO)c3)ccc2[nH]1` [Example 3, N-(2,6-dimethoxybenzyl)-5-[(2R)-2-({(2R)-2-hydroxy-2-[4-hydroxy-3-(hydroxymethyl)phenyl]ethyl}amino)propyl]-1H-indole-2-carboxamide], the pEC50 was 10.30.

As to `C[C@H](Cc1ccc2[nH]c(C(=O)NCc3ccc(C(F)(F)F)cc3)cc2c1)NC[C@H](O)c1ccc(O)c(CO)c1` [Example 2, 5-[(2R)-2-({(2R)-2-hydroxy-2-[4-hydroxy-3-(hydroxymethyl)phenyl]ethyl}amino)propyl]-N-[4-(trifluoromethyl)benzyl]-1H-indole-2-carboxamide], the pEC50 is 9.10.
